Results: PubChem BioAssay AID248 (DTP/NCI, 2004)
Inconclusive results and toxic doses are left out. Cut-off read from the data, not from the text of the source: active = T/C of 150% or more; inactive = T/C below 125%.

System: L1210 leukemia ip in BDF1 mice, survival T/C
Assay: NCI In Vivo Anticancer Drug Screen. Data for tumor model L1210 Leukemia (intraperitoneal) in B6D2F1 (BDF1) mice
Conditions: endpoint: mean survival time, higher = longer survival
Summary of the method: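 Tumor cells were implanted, animals were treated, and survival was followed. The result divides the treated measurement by the vehicle-control measurement.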

[1] = dose: 12.5 mg/kg/injection, schedule: Q01DX009 (ip), vehicle: saline with Tween-80
[2] = dose: 12.5 mg/kg/injection, schedule: Q04DX003 (ip), vehicle: saline with Tween-80
[3] = dose: 25.0 mg/kg/injection, schedule: Q01DX009 (ip), vehicle: saline with Tween-80
[4] = dose: 25.0 mg/kg/injection, schedule: Q04DX003 (ip), vehicle: saline with Tween-80
[5] = dose: 50.0 mg/kg/injection, schedule: Q01DX009 (ip), vehicle: saline with Tween-80
[6] = dose: 50.0 mg/kg/injection, schedule: Q04DX003 (ip), vehicle: saline with Tween-80
[7] = dose: 100.0 mg/kg/injection, schedule: Q01DX009 (ip), vehicle: saline with Tween-80
[8] = dose: 200.0 mg/kg/injection, schedule: Q01DX009 (ip), vehicle: saline with Tween-80
[9] = dose: 400.0 mg/kg/injection, schedule: Q01DX009 (ip), vehicle: saline with Tween-80
[10] = dose: 100.0 mg/kg/injection, schedule: Q01DX001 (ip), vehicle: saline
[11] = dose: 200.0 mg/kg/injection, schedule: Q01DX001 (ip), vehicle: saline
[12] = dose: 100.0 mg/kg/injection, schedule: Q04DX003 (ip), vehicle: Klucel (hydroxypropylcellulose) (HPC)
[13] = dose: 200.0 mg/kg/injection, schedule: Q04DX003 (ip), vehicle: Klucel (hydroxypropylcellulose) (HPC)
[14] = dose: 50.0 mg/kg/injection, schedule: Q04DX003 (ip), vehicle: Klucel (hydroxypropylcellulose) (HPC)
[15] = dose: 50.0 mg/kg/injection, schedule: Q01DX009 (ip), vehicle: Klucel (hydroxypropylcellulose) (HPC)
[16] = dose: 100.0 mg/kg/injection, schedule: Q01DX009 (ip), vehicle: Klucel (hydroxypropylcellulose) (HPC)

Measured: T/C

[Cu+2].[NH-]c1ccccc1C(=O)O.[NH-]c1ccccc1C(=O)O
inactive: [1] 101 % of control | [2] 97 % of control | [3] 101 % of control | [4] 97 % of control | [5] 88 % of control | [6] 90 % of control

CC(=O)N1C(=O)N(Cl)C(=O)C1(C)c1cccs1 (stereo unspecified)
inactive: [7] 107 % of control | dose: 100.0 mg/kg/injection, schedule: Q04DX003 (ip), vehicle: saline with Tween-80 105 % of control | [8] 101 % of control | dose: 200.0 mg/kg/injection, schedule: Q04DX003 (ip), vehicle: saline with Tween-80 103 % of control | [9] 93 % of control | dose: 400.0 mg/kg/injection, schedule: Q04DX003 (ip), vehicle: saline with Tween-80 106 % of control

COc1nc(OC)c(OP(=O)(OC)OC)c(OC)n1
inactive: dose: 50.0 mg/kg/injection, schedule: Q01DX001 (ip), vehicle: saline 95 % of control | [10] 98 % of control | [11] 89 % of control | dose: 400.0 mg/kg/injection, schedule: Q01DX001 (ip), vehicle: saline 95 % of control

CC1(C)OC2C(COC(=O)Oc3ccccc3)OC(n3cnc4c(=S)nc[nH]c43)C2O1 (stereo unspecified)
inactive: [7] 117 % of control | [12] 100 % of control | [13] 109 % of control

CCOC(=O)NP(=O)(Nc1ccccc1)Nc1ccccc1
inactive: dose: 50.0 mg/kg/injection, schedule: Q01DX001 (ip), vehicle: alcohol 104 % of control | dose: 100.0 mg/kg/injection, schedule: Q01DX001 (ip), vehicle: alcohol 98 % of control | dose: 200.0 mg/kg/injection, schedule: Q01DX001 (ip), vehicle: alcohol 102 % of control | dose: 400.0 mg/kg/injection, schedule: Q01DX001 (ip), vehicle: alcohol 104 % of control

O=C(Cn1ccc(=O)[nH]c1=O)Nc1ccc(O)c(C(=O)O)c1
inactive: [14] 100 % of control | [12] 107 % of control | [13] 100 % of control

CCOC(=O)C1CCCN(S(=O)(=O)c2ccc(C)cc2)c2ccccc2C1=O (stereo unspecified)
inactive: [12] 93 % of control | [13] 102 % of control | dose: 400.0 mg/kg/injection, schedule: Q04DX003 (ip), vehicle: Klucel (hydroxypropylcellulose) (HPC) 94 % of control

CCOC(=O)c1c[nH]c2nc(SC)[nH]c(=O)c2c1=O
inactive: dose: 25.0 mg/kg/injection, schedule: Q01DX009 (ip), vehicle: Klucel (hydroxypropylcellulose) (HPC) 86 % of control | dose: 25.0 mg/kg/injection, schedule: Q04DX003 (ip), vehicle: Klucel (hydroxypropylcellulose) (HPC) 104 % of control | [15] 93 % of control | [14] 103 % of control | dose: 100.0 mg/kg/injection, schedule: Q01DX001 (ip), vehicle: Klucel (hydroxypropylcellulose) (HPC) 102 % of control | [16] 101 % of control | [12] 101 % of control | dose: 200.0 mg/kg/injection, schedule: Q01DX001 (ip), vehicle: Klucel (hydroxypropylcellulose) (HPC) 98 % of control | dose: 400.0 mg/kg/injection, schedule: Q01DX001 (ip), vehicle: Klucel (hydroxypropylcellulose) (HPC) 107 % of control

N[n+]1cccc2ccccc21
inactive: [10] 93 % of control | dose: 100.0 mg/kg/injection, schedule: Q04DX003 (ip), vehicle: saline 108 % of control | [11] 108 % of control | dose: 200.0 mg/kg/injection, schedule: Q04DX003 (ip), vehicle: saline 110 % of control

O=S1(=O)C(c2ccccc2)CC1c1ccccc1 (stereo unspecified)
inactive: dose: 75.0 mg/kg/injection, schedule: Q04DX003 (ip), vehicle: Klucel (hydroxypropylcellulose) (HPC) 107 % of control | dose: 150.0 mg/kg/injection, schedule: Q04DX003 (ip), vehicle: Klucel (hydroxypropylcellulose) (HPC) 104 % of control | dose: 300.0 mg/kg/injection, schedule: Q04DX003 (ip), vehicle: Klucel (hydroxypropylcellulose) (HPC) 96 % of control

CC(=O)N(C)c1cc2c3c(c1)CCCN3CCC2
inactive: [15] 104 % of control | [16] 98 % of control

OC12CCCCC13CCC1CCCCC1(O2)O3 (stereo unspecified)
inactive: [7] 98 % of control | [8] 94 % of control | [9] 102 % of control

Cc1cc(OC(=O)Nc2cccc(C(F)(F)F)c2)c(C(C)C)cc1Cl
inactive: dose: 100.0 mg/kg/injection, schedule: Q01DX009 (ip), vehicle: gum acacia 87 % of control | dose: 200.0 mg/kg/injection, schedule: Q01DX009 (ip), vehicle: gum acacia 91 % of control | dose: 400.0 mg/kg/injection, schedule: Q01DX009 (ip), vehicle: gum acacia 86 % of control

Oc1cc(Br)c(O)c(Br)c1
inactive: dose: 25.0 mg/kg/injection, schedule: Q04DX002 (ip), vehicle: Klucel (hydroxypropylcellulose) (HPC) 109 % of control | dose: 50.0 mg/kg/injection, schedule: Q04DX002 (ip), vehicle: Klucel (hydroxypropylcellulose) (HPC) 102 % of control | dose: 100.0 mg/kg/injection, schedule: Q04DX002 (ip), vehicle: Klucel (hydroxypropylcellulose) (HPC) 97 % of control | dose: 400.0 mg/kg/injection, schedule: Q04DX002 (ip), vehicle: Klucel (hydroxypropylcellulose) (HPC) 90 % of control

CC(=O)NNC(=O)C1CCCCN1 (stereo unspecified)
inactive: dose: 100.0 mg/kg/injection, schedule: Q01DX001 (ip), vehicle: water 101 % of control | dose: 200.0 mg/kg/injection, schedule: Q01DX001 (ip), vehicle: water 100 % of control | dose: 400.0 mg/kg/injection, schedule: Q01DX001 (ip), vehicle: water 103 % of control

O=C1c2cc3c(cc2CCC1c1ccc2c(c1)OCO2)OCO3 (stereo unspecified)
inactive: dose: 40.0 mg/kg/injection, schedule: Q01DX009 (ip), vehicle: saline with Tween-80 88 % of control | dose: 80.0 mg/kg/injection, schedule: Q01DX009 (ip), vehicle: saline with Tween-80 88 % of control | dose: 120.0 mg/kg/injection, schedule: Q01DX009 (ip), vehicle: saline with Tween-80 94 % of control | dose: 240.0 mg/kg/injection, schedule: Q01DX009 (ip), vehicle: saline with Tween-80 94 % of control | dose: 240.0 mg/kg/injection, schedule: Q01DX009 (ip), vehicle: saline 93 % of control | dose: 360.0 mg/kg/injection, schedule: Q01DX009 (ip), vehicle: saline with Tween-80 96 % of control | dose: 360.0 mg/kg/injection, schedule: Q01DX009 (ip), vehicle: saline 96 % of control | dose: 545.0 mg/kg/injection, schedule: Q01DX009 (ip), vehicle: saline 91 % of control

CCS(=O)(=O)/C=C/c1ccc(NC(C)=O)cc1
inactive: dose: 100.0 mg/kg/injection, schedule: Q04DX002 (ip), vehicle: saline with Tween-80 122 % of control | dose: 200.0 mg/kg/injection, schedule: Q04DX002 (ip), vehicle: saline with Tween-80 98 % of control | dose: 400.0 mg/kg/injection, schedule: Q04DX002 (ip), vehicle: saline with Tween-80 91 % of control

C/C=C/C(=O)OC
inactive: dose: 100.0 mg/kg/injection, schedule: Q01DX009 (ip), vehicle: saline 101 % of control | dose: 200.0 mg/kg/injection, schedule: Q01DX009 (ip), vehicle: saline 102 % of control | dose: 400.0 mg/kg/injection, schedule: Q01DX009 (ip), vehicle: saline 104 % of control

Cc1ccc(-c2nc3ncncc3[nH]2)cc1[N+](=O)[O-]
inactive: dose: 32.5 mg/kg/injection, schedule: Q01DX001 (ip), vehicle: Klucel (hydroxypropylcellulose) (HPC) 100 % of control | dose: 65.0 mg/kg/injection, schedule: Q01DX001 (ip), vehicle: Klucel (hydroxypropylcellulose) (HPC) 102 % of control | dose: 130.0 mg/kg/injection, schedule: Q01DX001 (ip), vehicle: Klucel (hydroxypropylcellulose) (HPC) 97 % of control

C[S+](C)CCCNC(=O)c1csc(CCNC(=O)c2ccccc2)n1
inactive: [1] 100 % of control | [2] 103 % of control | [3] 97 % of control | [4] 101 % of control | [5] 101 % of control | [6] 97 % of control

COc1ccc(C=C2c3ccccc3-c3ccccc32)cc1
inactive: dose: 100.0 mg/kg/injection, schedule: Q04DX003 (ip), vehicle: saline sonified 95 % of control | dose: 200.0 mg/kg/injection, schedule: Q04DX003 (ip), vehicle: saline sonified 100 % of control | dose: 400.0 mg/kg/injection, schedule: Q04DX003 (ip), vehicle: saline sonified 94 % of control
